Laboratory results published in ChEMBL document CHEMBL3797158, “Discovery of potent, reversible MetAP2 inhibitors via fragment based drug discovery and structure based drug design-Part 1” (Bioorg Med Chem Lett, 2016).

What was measured:
[1] = biological target: T1, Cytochrome P450 1A2 (Homo sapiens, UniProt P05177); assay: Inhibition of human CYP1A2 expressed in Escherichia coli DH5-alpha; type: ADME
T1 sequence (P05177 whole entry): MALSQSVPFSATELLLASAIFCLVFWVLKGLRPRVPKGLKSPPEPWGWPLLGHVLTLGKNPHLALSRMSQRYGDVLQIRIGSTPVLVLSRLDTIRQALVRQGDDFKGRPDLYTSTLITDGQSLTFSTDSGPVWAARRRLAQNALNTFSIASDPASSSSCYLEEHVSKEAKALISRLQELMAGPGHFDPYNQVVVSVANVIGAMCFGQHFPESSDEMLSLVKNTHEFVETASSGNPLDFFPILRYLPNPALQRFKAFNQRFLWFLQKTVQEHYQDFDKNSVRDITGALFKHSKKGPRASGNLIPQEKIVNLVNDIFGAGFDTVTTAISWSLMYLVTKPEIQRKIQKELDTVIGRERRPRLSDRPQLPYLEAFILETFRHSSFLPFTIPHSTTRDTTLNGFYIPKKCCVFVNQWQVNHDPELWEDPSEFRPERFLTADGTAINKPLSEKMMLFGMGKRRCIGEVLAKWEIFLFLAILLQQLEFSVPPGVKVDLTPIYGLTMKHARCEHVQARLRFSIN

[2] = biological target: Methionine aminopeptidase 2 (Homo sapiens, UniProt P50579); assay: Inhibition of MetAP2 in HUVEC assessed as accumulation of N-Met-14-3-3gamma after 24 hrs by Western blot method; type: cell-based
[3] = system: Mus musculus; assay: AUC in diet-induced obese mouse at 5 mg/kg, po; type: ADME, organism-based; conditions: in vivo
[4] = system: Mus musculus; assay: Antiobesity activity in po dosed diet-induced obese mouse assessed as body weight loss administered as qd for 28 days; type: functional, organism-based
[5] = Half life in diet-induced obese mouse at 5 mg/kg, po or 1 mg/kg, iv; type: ADME, organism-based; conditions: in vivo
[6] = Volume of distribution in diet-induced obese mouse at 5 mg/kg, po or 1 mg/kg, iv; type: ADME, organism-based; conditions: in vivo
[7] = system: Mus musculus; assay: Oral bioavailability in diet-induced obese mouse at 5 mg/kg; type: ADME, organism-based; conditions: in vivo

Sequence of Methionine aminopeptidase 2 (P50579 whole entry): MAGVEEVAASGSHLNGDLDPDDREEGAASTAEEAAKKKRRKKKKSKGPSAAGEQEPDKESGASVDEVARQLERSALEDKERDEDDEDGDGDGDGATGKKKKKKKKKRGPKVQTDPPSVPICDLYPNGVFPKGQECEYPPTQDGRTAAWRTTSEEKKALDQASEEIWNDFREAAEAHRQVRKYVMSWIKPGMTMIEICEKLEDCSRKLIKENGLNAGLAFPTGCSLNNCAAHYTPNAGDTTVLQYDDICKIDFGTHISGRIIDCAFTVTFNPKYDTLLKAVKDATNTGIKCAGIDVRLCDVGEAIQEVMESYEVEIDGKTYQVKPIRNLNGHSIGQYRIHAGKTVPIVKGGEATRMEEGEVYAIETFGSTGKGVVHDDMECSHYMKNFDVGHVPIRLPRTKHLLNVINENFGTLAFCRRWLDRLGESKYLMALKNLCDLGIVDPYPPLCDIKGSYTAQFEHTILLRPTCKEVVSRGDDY

Structure (SMILES) | IC50 [1] | further results
Cc1nc(N2CC[C@H](O)C2)ncc1-c1cc(C(F)(F)F)cc2[nH]ncc12 | > 50.1 µM | EC50 [2]: 0.121 µM
Cc1cc(C(=O)NCCO)ncc1-c1cc(C(F)(F)F)cc2[nH]ncc12 | > 50.1 µM | 
Cc1nc(N2CC[C@@H](O)C2)ncc1-c1cc(C(F)(F)F)cc2[nH]ncc12 [TP-004] | > 50.1 µM | AUC [3]: 15084 ng·h/mL; EC50 [2]: 0.015 µM; Activity [4]: Dose-dependent effect; half-life [5]: 2 h; Vd [6]: 1.25 L/kg; F [7]: 58%
COc1cc(C(=O)NCCO)ccc1-c1cc(C(F)(F)F)cc2[nH]ncc12 | > 50.1 µM | 

More lines, main results first:

IC50 [1] | Structure (SMILES) | further results
> 50.1 µM | O=C(NCCO)c1ccc(-c2cc(C(F)(F)F)cc3[nH]ncc23)c(F)c1 | 
15.8 µM | CNC(=O)c1ccc(-c2cc(C(F)(F)F)cc3[nH]ncc23)c(OC)c1 | 
0.316 µM | FC(F)(F)c1cc(-c2ccc3nccn3c2)c2cn[nH]c2c1 | 
